HELM strings list units from the 5' end as sugar, base in round brackets, then linkage (d deoxyribose, r ribose, m 2'-O-methyl, p phosphodiester). Strings are as the collection lists them; they lack the last nucleoside at the 3' end of the tested compound. [moe] = 2'-O-(2-methoxyethyl) (MOE); [sp] = phosphorothioate linkage; [m5C] = 5-methylcytosine
Target: HTT
Test: mouse, dose not given
Details: ASO

Work on “RNA1{[moe](T)[sp].[moe]([m5C])p.[moe](A)p.[moe]([m5C])p.[moe](A)[sp].d(G)[sp].d([m5C])[sp].d(T)[sp].d(T)[sp].d(T)[sp].d(T)[sp].d(A)[sp].d(T)[sp].[moe](T)p.[moe](T)p.[moe]([m5C])[sp].[moe]([m5C])}$$$$ (last 3' nucleoside missing)” yielded a 3 h FOB score of 0 score 0-7.

“RNA1{[moe](G)[sp].[moe](T)p.[moe]([m5C])[sp].[moe](A)[sp].[moe]([m5C])[sp].d(A)[sp].d(G)[sp].d([m5C])[sp].d(T)[sp].d(T)[sp].d(T)[sp].d(T)[sp].d(A)[sp].d(T)[sp].d(T)[sp].[moe](T)[sp].[moe]([m5C])p.[moe]([m5C])[sp].[moe](A)}$$$$ (last 3' nucleoside missing)” showed a 3 h FOB score of 1.25 score 0-7.

“RNA1{[moe](T)[sp].[moe](G)p.[moe]([m5C])p.[moe](T)p.[moe](G)[sp].d([m5C])[sp].d(T)[sp].d([m5C])[sp].d(A)[sp].d([m5C])[sp].d(T)[sp].d([m5C])[sp].d(A)[sp].d(T)[sp].d(T)[sp].[moe](T)p.[moe]([m5C])p.[moe]([m5C])[sp].[moe](A)}$$$$ (last 3' nucleoside missing)” showed a 3 h FOB score of 0 score 0-7.

“RNA1{[moe](G)[sp].[moe]([m5C])p.[moe](A)p.[moe](T)p.[moe]([m5C])[sp].d(T)[sp].d(T)[sp].d(G)[sp].d(T)[sp].d(T)[sp].d(T)[sp].d(T)[sp].d(A)[sp].d([m5C])[sp].d([m5C])[sp].[moe](A)p.[moe]([m5C])p.[moe]([m5C])[sp].[moe]([m5C])}$$$$ (last 3' nucleoside missing)” was tested, and the 3 h FOB score was 1.5 score 0-7.

“RNA1{[moe](G)[sp].[moe](G)p.[moe](T)p.[moe](T)p.[moe](A)[sp].d(G)[sp].d(T)[sp].d(T)[sp].d(T)[sp].d(T)[sp].d([m5C])[sp].d([m5C])[sp].d(T)[sp].d(T)[sp].d(T)[sp].[moe](T)p.[moe](A)p.[moe](T)[sp].[moe](A)}$$$$ (last 3' nucleoside missing)” was tested, and the 3 h FOB score was 1 score 0-7.

“RNA1{[moe](A)[sp].[moe]([m5C])p.[moe](T)p.[moe]([m5C])p.[moe](A)[sp].d(T)[sp].d(T)[sp].d(T)[sp].d([m5C])[sp].d([m5C])[sp].d(A)[sp].d([m5C])[sp].d([m5C])[sp].d(T)[sp].d(T)[sp].[moe]([m5C])p.[moe](A)p.[moe](G)[sp].[moe]([m5C])}$$$$ (last 3' nucleoside missing)” gave a 3 h FOB score of 0 score 0-7.

“RNA1{[moe](G)[sp].[moe](T)p.[moe]([m5C])p.[moe](A)p.[moe]([m5C])[sp].d(A)[sp].d(G)[sp].d([m5C])[sp].d(T)[sp].d(T)[sp].d(T)[sp].d(T)[sp].d(A)[sp].d(T)[sp].d(T)[sp].[moe](T)p.[moe]([m5C])p.[moe]([m5C])[sp].[moe](A)}$$$$ (last 3' nucleoside missing)” was tested, and the 3 h FOB score was 1 score 0-7.

Substance “RNA1{[moe](G)[sp].[moe]([m5C])p.[moe](T)p.[moe](T)p.[moe](T)[sp].d(T)[sp].d(G)[sp].d(A)[sp].d(A)[sp].d(A)[sp].d(T)[sp].d(T)[sp].d([m5C])[sp].d(T)[sp].d([m5C])[sp].[moe]([m5C])p.[moe](A)p.[moe](T)[sp].[moe]([m5C])}$$$$ (last 3' nucleoside missing)” has a 3 h FOB score of 6.75 score 0-7.

“RNA1{[moe](G)[sp].[moe]([m5C])p.[moe](T)p.[moe](T)p.[moe](T)[sp].d(G)[sp].d(A)[sp].d(T)[sp].d(T)[sp].d(T)[sp].d(T)[sp].d(T)[sp].d(A)[sp].d([m5C])[sp].d([m5C])[sp].[moe](A)p.[moe](G)p.[moe](T)[sp].[moe](T)}$$$$ (last 3' nucleoside missing)” was tested, and the 3 h FOB score was 1 score 0-7.

For “RNA1{[moe](G)[sp].[moe](G)p.[moe](T)p.[moe](T)p.[moe](A)[sp].d(G)[sp].d(T)[sp].d(T)[sp].d(T)[sp].d(T)[sp].d([m5C])[sp].d([m5C])[sp].d(T)[sp].[moe](T)p.[moe](T)p.[moe](T)[sp].[moe](A)}$$$$ (last 3' nucleoside missing)”, the 3 h FOB score was 1 score 0-7.

Substance “RNA1{[moe](A)[sp].[moe](A)p.[moe]([m5C])p.[moe](A)p.[moe](A)[sp].d(A)[sp].d(T)[sp].d(A)[sp].d(T)[sp].d(T)[sp].d(T)[sp].d(T)[sp].d([m5C])[sp].d(A)[sp].d(A)[sp].[moe]([m5C])p.[moe](T)p.[moe](G)[sp].[moe](G)}$$$$ (last 3' nucleoside missing)” has a 3 h FOB score of 4.5 score 0-7.

From the OligoGym collection
